Test results published in publication PMC10578352, “Identification of a Protein Arginine Methyltransferase 7 (PRMT7)/Protein Arginine Methyltransferase 9 (PRMT9) Inhibitor” (Journal of Medicinal Chemistry, 2023).

Tests used:
Type in all cases: biochemical
ASH1L/KMT2H = molecular target: T1, ASH1L/KMT2H (Homo sapiens, UniProt Q9NR48); experiment: HotSpot KMT activity assay, ASH1L; conditions: read-out: % ASH1L residual activity
T1 construct: the human recombinant ASH1L (residues 2046–2330, with an N-terminal His-tag); His (N); purchased Reaction Biology Corporation
Excerpt: (§1) ; MW = 35.4 kDa; Genbank Accession # NM_018489), or the human recombinant EZH2-containing five-member polycomb repressive complex 2 (including EZH2 residues 2–746, AEBP2 2–517, EED 2–441, RbAp48 2–425, SUZ12 2–739; all full-length; with N-terminal Flag-tag on EED and N-terminal His-tag on all others; MW = 333.8 kDa; Genbank Accession # NM_001203247, NM_001114176, NM_003797, NM_005610, NM_015355), or the human recombinant G9a (residues 913–1193, C-terminus; with an N-terminal His-tag; MW = 34.6 kDa; Genbank Accession # NM_006709.3), or the human recombinant MLL1 complex (including MLL1 residues 3745–3969, C-terminus, WDR5 22–334, C-terminus, RbBP5 1–538, C-terminus, ASH2L 2–534, C-terminus, DPY-30 1–99, C-terminus; N-terminal His-tag on all subunits; MW = 212.0 kDa; Genbank Accession # NM_005933, NM_017588, NM_005057, NM_001105214, NM_0325742), or the human recombinant SET7/9 (residues 2–366, C-terminus; with a N-terminal GST-tag and a C-terminal His-tag; MW = 68.5 kDa; Genbank Accession # NM_030648), or the human recombinant SMYD3 (residues 2–428, C-terminus; C-terminal His-tag; MW = 50.1 kDa; Genbank Accession # NM_001167740), or the human recombinant SUV39H2 (residues 46–410, C-terminus; N-terminal fusion protein with a C-terminal His-tag; MW = 98.8 kDa; GenBank Accession No. NM_001193424), or the human recombinant DOT1L (residues 1–416; N-terminal GST-tag; MW = 80.0 kDa; Genbank Accession # NM_032482) was added to a solution of the proper substrate (oligo nucleosomes for ASH1L, MLL1 complex, and DOT1L, final concentration 0.05 mg/mL; core histone for EZH2 complex and SET7/9, final concentration 0.05 mg/mL; histone H3 for SUV39H2, final concentration 5 μM; histone H3 1–21 for G9a, final concentration 2.5 μM) in freshly prepared reaction buffer (50 mM Tris-HCl (pH 8.5), 5 mM MgCl2, 50 mM NaCl, 1 mM DTT, 1 mM PMSF, 1% DMSO) and gently mixed. […] After incubation for 60 min at 30 °C, the reaction mixture was delivered to filter paper for detection (as assessed by scintillation). […] Values obtained for each compound are mean ± SD determined for two separate experiments.

PRMT7 = molecular target: T2, PRMT7 (Homo sapiens, UniProt Q9NVM4); experiment: HotSpot radioisotope-based filter assay, PRMT7; conditions: 5 μM GST-GAR, 3H-SAM 1 μM
T2 construct: PRMT7 (residues 2–692, C-terminus); with an N-terminal His-tag; His (N); purchased Reaction Biology Corporation
T2 sequence (Q9NVM4 2-692): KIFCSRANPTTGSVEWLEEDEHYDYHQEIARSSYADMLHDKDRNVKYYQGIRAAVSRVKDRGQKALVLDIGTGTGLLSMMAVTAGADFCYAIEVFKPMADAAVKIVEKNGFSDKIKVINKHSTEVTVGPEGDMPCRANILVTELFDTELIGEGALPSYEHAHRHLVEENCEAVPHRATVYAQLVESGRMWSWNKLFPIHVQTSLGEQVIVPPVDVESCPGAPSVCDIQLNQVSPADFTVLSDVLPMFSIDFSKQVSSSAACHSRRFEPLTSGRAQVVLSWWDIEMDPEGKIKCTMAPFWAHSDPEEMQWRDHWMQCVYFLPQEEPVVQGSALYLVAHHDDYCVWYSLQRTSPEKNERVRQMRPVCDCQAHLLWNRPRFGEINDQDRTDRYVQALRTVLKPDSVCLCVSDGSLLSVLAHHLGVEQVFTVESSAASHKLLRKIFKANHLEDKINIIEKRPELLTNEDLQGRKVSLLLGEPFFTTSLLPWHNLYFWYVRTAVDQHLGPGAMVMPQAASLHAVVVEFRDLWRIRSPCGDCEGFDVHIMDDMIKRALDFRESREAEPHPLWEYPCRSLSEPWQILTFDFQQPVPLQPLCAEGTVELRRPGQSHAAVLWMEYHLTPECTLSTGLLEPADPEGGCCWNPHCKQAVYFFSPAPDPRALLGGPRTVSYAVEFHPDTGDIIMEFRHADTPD
Experimental: Then, ^3H-SAM (final concentration of 1 μM) was delivered into the reaction mixture to initiate the reaction. After incubation for 60 min at 30 °C, the reaction mixture was delivered to filter-paper for detection (as assessed by scintillation). Data were analyzed using Excel and GraphPad Prism 6.0 software (GraphPad Software Inc., San Diego, CA) for IC50 curve fits using sigmoidal dose vs response - variable slope (four parameters) equations.

SMYD3/KMT3E = molecular target: T3, SMYD3/KMT3E (Homo sapiens, UniProt Q9H7B4); experiment: HotSpot KMT activity assay, SMYD3; conditions: read-out: % SMYD3 residual activity
T3 construct: the human recombinant SMYD3 (residues 2–428, C-terminus); C-terminal His-tag; His (C); purchased Reaction Biology Corporation
T3 sequence (Q9H7B4 2-428): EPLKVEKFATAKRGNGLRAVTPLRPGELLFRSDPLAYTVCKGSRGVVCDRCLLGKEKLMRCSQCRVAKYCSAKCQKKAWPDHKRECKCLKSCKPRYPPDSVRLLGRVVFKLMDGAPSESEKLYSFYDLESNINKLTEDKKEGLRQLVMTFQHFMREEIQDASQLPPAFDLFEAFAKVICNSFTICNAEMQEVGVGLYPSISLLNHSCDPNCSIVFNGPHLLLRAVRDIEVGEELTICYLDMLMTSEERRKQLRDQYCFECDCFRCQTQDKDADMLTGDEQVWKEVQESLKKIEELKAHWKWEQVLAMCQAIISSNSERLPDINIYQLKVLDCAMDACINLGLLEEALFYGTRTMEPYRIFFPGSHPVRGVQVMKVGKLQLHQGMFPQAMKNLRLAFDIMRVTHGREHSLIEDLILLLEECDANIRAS
Excerpt: as §1

- remaining activity at 10 µM (ASH1L/KMT2H; 10 μM): 95.4 ± 1.49%
- remaining activity at 100 µM (ASH1L/KMT2H; 100 μM): 109 ± 3.8%
- IC50 (PRMT7): 5.6 µM
- remaining activity at 10 µM (SMYD3/KMT3E; 10 μM): 99.1 ± 1.41%
- remaining activity at 100 µM (SMYD3/KMT3E; 100 μM): 74.2 ± 1.8%
SMILES: COC(=O)c1cc(O)c2cc(NC(=O)NCCCNC(=N)NC[C@H]3O[C@@H](n4cnc5c(N)ncnc54)[C@H](O)[C@@H]3O)cc(C(F)(F)F)c2c1 [1j, Methyl 6-(3-(3-(3-(((2R,3S,4R,5R)-5-(6-Amino-9H-purin-9-yl)-3,4-dihydroxytetrahydrofuran-2-yl)methyl)guanidino)propyl)ureido)-4-hydroxy-8-(trifluoromethyl)-2-naphthoate]
